Reference: patent publication US8501786B2, “Hydroxymethyl pyrrolidines as beta 3 adrenergic receptor agonists” (Merck Sharp & Dohme Corp., priority 2009, dated 2013)
Structures can show the parent of a compound that is named as a salt. Where two headings read alike, the source gives them in different places.

Target: T1, human β3 adrenergic receptor (Homo sapiens, UniProt P13945)
T1 construct: stably transfected with the cloned β-adrenergic receptor (β1, β2 or β3); expressed in transfected cells; host or cells: Chinese hamster ovary (CHO) cells, stably transfected
T1 sequence (P13945 whole entry): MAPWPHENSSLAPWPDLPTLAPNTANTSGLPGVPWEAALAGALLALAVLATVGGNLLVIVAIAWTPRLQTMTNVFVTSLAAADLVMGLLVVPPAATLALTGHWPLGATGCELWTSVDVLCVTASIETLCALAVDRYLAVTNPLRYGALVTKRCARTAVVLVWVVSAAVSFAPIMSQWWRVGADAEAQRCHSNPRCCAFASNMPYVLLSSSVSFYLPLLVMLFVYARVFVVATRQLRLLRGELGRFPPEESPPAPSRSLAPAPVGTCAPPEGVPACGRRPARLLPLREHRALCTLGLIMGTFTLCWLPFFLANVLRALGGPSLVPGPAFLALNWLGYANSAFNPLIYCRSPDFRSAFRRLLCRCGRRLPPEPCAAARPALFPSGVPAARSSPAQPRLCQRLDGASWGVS
Test: Functional assay: cAMP production (LANCE TR-FRET) in CHO cells stably transfected with cloned β3 adrenergic receptor
Format: cell-based
Settings: cAMP production, CHO cells expressing human β3 AR
Description: Functional Assay: cAMP production in response to ligand is measured according to Barton, et al. (1991, Agonist-induced desensitization of D2 dopamine receptors in human Y-79 retinoblastoma cells. Mol. Pharmacal. v3229:650-658) modified as follows, cAMP production is measured using a homogenous time-resolved fluorescence resonance energy transfer immunoassay (LANCE™, Perkin Elmer) according to the manufacture's instructions. Chinese hamster ovary (CHO) cells, stably transfected with the cloned β-adrenergic receptor (β1, β2 or β3) are harvested after 3 days of subculturing. Harvesting of cells is done with Enzyme-free Dissociation Media (Specialty Media). Cells are then counted and resuspended in assay buffer (Hank's Balanced salt solution supplemented with 5 mM HEPES, […]) containing a phosphodiesterase inhibitor (IBMX, 0.6 mM). The reaction is initiated by mixing 6,000 cells in 6 μL with 6 μL Alexa Fluor labeled cAMP antibody (LANCE™ kit) which is then added to an assay well containing 12 μL of compound (diluted in assay buffer to 2× final concentration). The reaction proceeds for 30 min at room temperature and is terminated by the addition of 24 ul detection buffer (LANCE™ kit). The assay plate is then incubated for 1 h at room temperature and time-resolved fluorescence measured on a Perkin Elmer Envision reader or equivalent. The unknown cAMP level is determined by comparing fluorescence levels to a cAMP standard curve.
The non-selective, full agonist β-adrenergic ligand isoproterenol is used at all three receptors to determine maximal stimulation. The human β3 adrenergic receptor (AR) selective ligand (S)-N-[4-[2-[[2-hydroxy-3-(4-hydroxyphenoxy)propyl]amino]ethyl]-phenyl]-4-iodobenzenesulfonamide is used as a control in all assays. Isoproterenol is titrated at a final concentration in the assay of 10^-10 M to 10-5 and the selective ligand (S)-N-[4-[2-[[2-hydroxy-3-(4-hydroxyphenoxy)propyl]amino]ethyl]phenyl]-4-iodobenzenesulfonamide is titrated at the β3 receptor at concentration of 10^-10 M to 10^-5 M. Unknown ligands are titrated at all 3 β-adrenergic receptor subtypes at a final concentration in the assay of 10^-10 M to 10^-5 M to determine the EC50. The EC50 is defined as the concentration of compound that gives 50% activation of its own maximum. Data are analyzed using Microsoft Excel and Graphpad Prism or an internally developed data analysis software package.

[1] = Table 2, read-out: Human β3 functional
[2] = read-out: human Beta-3 agonist functional activity
[3] = Table 3, read-out: Human β3 functional

Row | Structure (SMILES) | EC50 [3] | also measured
1 | O=C(Cn1cnc2ccccc2c1=O)Nc1ccc(CC2CC[C@H]([C@H](O)c3cccnc3)N2)cc1 (single isomer, unassigned) [Example 12] | – | EC50 [1]: 1 to 10 nM
2 | O=C(Cn1cnc2ccccc2c1=O)Nc1ccc(CC2CC[C@H]([C@H](O)c3cccnc3)N2)cc1 (single isomer, unassigned) [Example 64] | – | EC50 [1]: 1 to 10 nM
3 | C[C@H](C(=O)Nc1ccc(C[C@@H]2CC[C@H]([C@H](O)c3cccnc3)N2)cc1)c1ccccn1 (single isomer, unassigned) [Example 93, trifluoroacetic acid salt] | – | EC50 [2]: < 100 nM
4 | C[C@@H](C(=O)Nc1ccc(C[C@@H]2CC[C@H]([C@H](O)c3cccnc3)N2)cc1)c1ccccn1 (single isomer, unassigned) [Example 94, trifluoroacetic acid salt] | – | EC50 [2]: < 100 nM
5 | C[C@@H](C(=O)Nc1ccc(C[C@@H]2CC[C@H]([C@H](O)c3cccnc3)N2)cc1)n1ccccc1=O (single isomer, unassigned) [Example 95] | – | EC50 [2]: < 10 nM
6 | C[C@H](C(=O)Nc1ccc(C[C@@H]2CC[C@H]([C@H](O)c3cccnc3)N2)cc1)n1ccccc1=O (single isomer, unassigned) [Example 96, trifluoroacetic acid salt] | – | EC50 [2]: < 10 nM
7 | Cc1nc(C(C)C(=O)Nc2ccc(CC3CC[C@H]([C@H](O)c4cccnc4)N3)cc2)c(C)s1 (single isomer, unassigned) [Example 103] | 101 to 1000 nM | –
8 | Cc1nc(C(C)C(=O)Nc2ccc(CC3CC[C@H]([C@H](O)c4cccnc4)N3)cc2)c(C)s1 (single isomer, unassigned) [Example 104] | 1000 to 3000 nM | –
9 | CCCC(C(=O)Nc1ccc(CC2CC[C@H]([C@H](O)c3cccnc3)N2)cc1)c1csc(N)n1 (single isomer, unassigned) [Example 107] | 11 to 100 nM | –
10 | CCCC(C(=O)Nc1ccc(CC2CC[C@H]([C@H](O)c3cccnc3)N2)cc1)c1csc(N)n1 (single isomer, unassigned) [Example 108] | 1 to 10 nM | –
11 | CCCC(C(=O)Nc1ccc(CC2CC[C@H]([C@H](O)c3cccnc3)N2)cc1)c1cnc(N)s1 (single isomer, unassigned) [Example 109] | 1 to 10 nM | –
12 | C#CCC(C(=O)Nc1ccc(CC2CC[C@H]([C@H](O)c3cccnc3)N2)cc1)c1cnc(N)s1 (single isomer, unassigned) [Example 110] | 1 to 10 nM | –
13 | CC(C(=O)Nc1ccc(CC2CC[C@H]([C@H](O)c3cccnc3)N2)cc1)c1csc(C(F)(F)F)n1 (single isomer, unassigned) [Example 111] | 11 to 100 nM | –
14 | CC(C(=O)Nc1ccc(CC2CC[C@H]([C@H](O)c3cccnc3)N2)cc1)c1csc(C(F)(F)F)n1 (single isomer, unassigned) [Example 112] | 101 to 1000 nM | –
15 | Nc1nc2c(s1)CCC2C(=O)Nc1ccc(CC2CC[C@H]([C@H](O)c3cccnc3)N2)cc1 (single isomer, unassigned) [Example 113] | < 1 nM | –
16 | Nc1nc2c(s1)CCC2C(=O)Nc1ccc(CC2CC[C@H]([C@H](O)c3cccnc3)N2)cc1 (single isomer, unassigned) [Example 114] | 11 to 100 nM | –
17 | Cc1nc2c(s1)CCC2C(=O)Nc1ccc(CC2CC[C@H]([C@H](O)c3cccnc3)N2)cc1 (single isomer, unassigned) [Example 115] | 1 to 10 nM | –
18 | Cc1nc2c(s1)CCC2C(=O)Nc1ccc(CC2CC[C@H]([C@H](O)c3cccnc3)N2)cc1 (single isomer, unassigned) [Example 116] | 101 to 1000 nM | –
19 | Cc1nc2c(s1)CCC2C(=O)Nc1ccc(CC2CC[C@H]([C@H](O)c3cccnc3)N2)cc1 (single isomer, unassigned) [Example 117] | 11 to 100 nM | –
20 | Cc1nc2c(s1)CCC2C(=O)Nc1ccc(CC2CC[C@H]([C@H](O)c3cccnc3)N2)cc1 (single isomer, unassigned) [Example 118] | 101 to 1000 nM | –
21 | CCc1nc2c(s1)CCC2C(=O)Nc1ccc(CC2CC[C@H]([C@H](O)c3cccnc3)N2)cc1 (single isomer, unassigned) [Example 119] | 101 to 1000 nM | –
22 | CCc1nc2c(s1)CCC2C(=O)Nc1ccc(CC2CC[C@H]([C@H](O)c3cccnc3)N2)cc1 (single isomer, unassigned) [Example 120] | 11 to 100 nM | –
23 | O=C(Nc1ccc(CC2CC[C@H]([C@H](O)c3cccnc3)N2)cc1)C1CCc2sc(C3CC3)nc21 (single isomer, unassigned) [Example 121] | 11 to 100 nM | –
24 | O=C(Nc1ccc(CC2CC[C@H]([C@H](O)c3cccnc3)N2)cc1)C1CCc2sc(C3CC3)nc21 (single isomer, unassigned) [Example 122] | 101 to 1000 nM | –
25 | CC(C)c1nc2c(s1)CCC2C(=O)Nc1ccc(CC2CC[C@H]([C@H](O)c3cccnc3)N2)cc1 (single isomer, unassigned) [Example 123] | 101 to 1000 nM | –
26 | CC(C)c1nc2c(s1)CCC2C(=O)Nc1ccc(CC2CC[C@H]([C@H](O)c3cccnc3)N2)cc1 (single isomer, unassigned) [Example 124] | 11 to 100 nM | –
27 | COCc1nc2c(s1)CCC2C(=O)Nc1ccc(CC2CC[C@H]([C@H](O)c3cccnc3)N2)cc1 (single isomer, unassigned) [Example 125] | 11 to 100 nM | –
28 | COCc1nc2c(s1)CCC2C(=O)Nc1ccc(CC2CC[C@H]([C@H](O)c3cccnc3)N2)cc1 (single isomer, unassigned) [Example 126] | 101 to 1000 nM | –
29 | Cc1nc2c(s1)CCC2(C)C(=O)Nc1ccc(CC2CC[C@H]([C@H](O)c3cccnc3)N2)cc1 (single isomer, unassigned) [Example 129] | 1000 to 3000 nM | –

Second part, led by results:

Row | EC50 [3] | Structure (SMILES) | also measured
30 | 11 to 100 nM | CC(C(=O)Nc1ccc(CC2CC[C@H]([C@H](O)c3cccnc3)N2)cc1)n1cccn1 (single isomer, unassigned) [Example 97] | –
31 | 11 to 100 nM | CC(C(=O)Nc1ccc(CC2CC[C@H]([C@H](O)c3cccnc3)N2)cc1)n1cccn1 (single isomer, unassigned) [Example 98] | –
32 | 11 to 100 nM | Cc1ccn(C(C)C(=O)Nc2ccc(CC3CC[C@H]([C@H](O)c4cccnc4)N3)cc2)n1 (single isomer, unassigned) [Example 99] | –
33 | 1000 to 3000 nM | Cc1ccn(C(C)C(=O)Nc2ccc(CC3CC[C@H]([C@H](O)c4cccnc4)N3)cc2)n1 (single isomer, unassigned) [Example 100] | –
34 | 1 to 10 nM | Cc1nc(C(C)C(=O)Nc2ccc(CC3CC[C@H]([C@H](O)c4cccnc4)N3)cc2)cs1 (single isomer, unassigned) [Example 101] | –
35 | 101 to 1000 nM | Cc1nc(C(C)C(=O)Nc2ccc(CC3CC[C@H]([C@H](O)c4cccnc4)N3)cc2)cs1 (single isomer, unassigned) [Example 102] | –
36 | 1 to 10 nM | CC(C(=O)Nc1ccc(CC2CC[C@H]([C@H](O)c3cccnc3)N2)cc1)c1csc(N)n1 (single isomer, unassigned) [Example 105] | –
37 | 1 to 10 nM | CC(C(=O)Nc1ccc(CC2CC[C@H]([C@H](O)c3cccnc3)N2)cc1)c1csc(N)n1 (single isomer, unassigned) [Example 106] | –
38 | 1 to 10 nM | O=C(Nc1ccc(CC2CC[C@H]([C@H](O)c3cccnc3)N2)cc1)C1CCc2cccnc21 (single isomer, unassigned) [Example 127] | –
39 | 1 to 10 nM | O=C(Nc1ccc(CC2CC[C@H]([C@H](O)c3cccnc3)N2)cc1)C1CCc2cccnc21 (single isomer, unassigned) [Example 128] | –
40 | 101 to 1000 nM | Cc1nc2c(s1)CCC2(C)C(=O)Nc1ccc(CC2CC[C@H]([C@H](O)c3cccnc3)N2)cc1 (single isomer, unassigned) [Example 130] | –
